{"source": "patent US10633429B2", "about": "“Human antibody κ type light chain complex-containing composition and method for producing same” (JAPAN SCIENCE AND TECHNOLOGY AGENCY, priority 2013, dated 2020)", "format_in_all_cases": "cell-based", "key": {"[1]": {"system": "SNU-1 cell line (human metastatic gastric cancer cell line)", "assay": "Cytotoxicity assay (WST assay), SNU-1 cell line", "experimental": "(§1) The cytotoxicity of each complex-containing composition to cancer cells was tested using cancer cell lines. As the cancer cell lines, A549 cell line (human alveolar epithelial cancer cell line), ES-2 cell line (human ovarian cancer cell line), MOLT-4 cell line (human acute lymphoblastic leukemia T cell line), BxPC-3 cell line (human pancreatic adenocarcinoma cell line), SNU-1 cell line (human metastatic gastric cancer cell line), and PANC-1 cell line (human pancreatic cancer cell line) were used.\n(§2) All of these cell lines were purchased from ATCC (American Type Culture Collection). Here, the A549 cell line was cultured using a 10% FCS (fetal calf serum)-containing F-12K culture medium by a general method, the ES-2 cell line was cultured using a 10% FCS-containing McCoy's 5A culture medium by a general method, each of the MOLT-4 cell line, SNU-1 cell line, and BxPC-3 cell line was cultured using a 10% FCS-containing RPMI-1640 culture medium by a general method, the PANC-1 cell line was cultured using a 10% FCS-containing DMEM culture medium by a general method, and the WI-38 cell line was cultured using a 10% FCS-containing EMEM culture medium by a general method.\n(§3) First, after being recovered by thawing the frozen cancer cell lines, the recovered cancer cell lines were seeded in a 96-well plate by 100 μL to be 5×10^3 cells/well (the number of seeds was appropriately adjusted by cell species). After culturing was carried out at 37° C. for 24 hours, a culture medium to be added to the 96-well plate was removed by decantation, and then each complex-containing composition prepared at a concentration of about 1 mg/mL was added to each well by 100 μL. After culturing was carried out for 24 hours or 48 hours from the addition of the complex-containing composition (after cells are planted and cultivated for 48 hours or 72 hours), a WST-1 reagent (manufactured by Roche Inc.) was added to each well by 10 μL and incubated for 1, 1.5, and 2 hours to form a formazan dye, and then the absorbance (Abs at 450 nm) of the formazan dye was measured (WST assay). As a control, a human antibody κ type light chain not bound to metal ions or PBS was added instead of the complex-containing composition and cultured for 24 hours or 48 hours, and then WST assay was carried out. Based on the results of the obtained absorbance, the cell survival rate of the well added with the human antibody κ type light chain not bound to metal ions or the well added with the PBS was set to 100%, and the cell survival rate of each well was determined, so as to evaluate the cytotoxicity of the added complex-containing composition."}, "[2]": {"system": "WI-38 cell line (human fetal lung fibroblast cell line)", "assay": "Cytotoxicity assay (WST assay), WI-38 control cell line", "conditions": "Example 5; cisplatin 4.2 μM; 24 hours; PBS set to 100%", "experimental": "In addition, as a control, WI-38 cell line (human fetal lung fibroblast cell line) was also used.\n(§4) All of these cell lines were purchased from ATCC (American Type Culture Collection). […]\nas §3, with “After culturing was carried out at 37° C. for 24 hours, a culture medium to be added to the 96-well plate was removed by decantation, and then each complex-containing composition prepared at a concentration of about 1 mg/mL was added to each well by 100 μL.” left out, “As a control, a human antibody κ type light chain not bound to metal ions or PBS was added instead of the complex-containing composition and cultured for 24 hours or 48 hours, and then WST assay was carried out.” left out"}, "[3]": {"system": "PANC-1 cell line (human pancreatic cancer cell line)", "assay": "Cytotoxicity assay (WST assay), PANC-1 cell line", "conditions": "Example 2, Fr. 3B set to 100%", "experimental": "as §1, §2\nas §3, with “After culturing was carried out at 37° C. for 24 hours, a culture medium to be added to the 96-well plate was removed by decantation, and then each complex-containing composition prepared at a concentration of about 1 mg/mL was added to each well by 100 μL.” left out"}, "[4]": {"system": "A549 cell line (human alveolar epithelial cancer cell line)", "assay": "Cytotoxicity assay (WST assay), A549 cell line", "conditions": "Example 5; C51 incubated with metal ions 4 μM or cisplatin 4 μM; 24 hours; PBS set to 100%", "experimental": "as §1, §4\nFirst, after being recovered by thawing the frozen cancer cell lines, the recovered cancer cell lines were seeded in a 96-well plate by 100 μL to be 5×10^3 cells/well (the number of seeds was appropriately adjusted by cell species). […] After culturing was carried out for 24 hours or 48 hours from the addition of the complex-containing composition (after cells are planted and cultivated for 48 hours or 72 hours), a WST-1 reagent (manufactured by Roche Inc.) was added to each well by 10 μL and incubated for 1, 1.5, and 2 hours to form a formazan dye, and then the absorbance (Abs at 450 nm) of the formazan dye was measured (WST assay). […]"}, "[5]": {"conditions": "Example 2, #7_wt fractions 4 μM (100 μg/mL) or cisplatin 4 μM, Fr. 3B set to 100%"}, "[6]": {"conditions": "Example 2, cisplatin 33 μM, Fr. 3B set to 100%"}, "[7]": {"conditions": "#7_wt fractions 4 μM (100 μg/mL) or cisplatin 4 μM"}}}
{"smiles": "N.N.[Cl][Pt][Cl]", "note": "[Cisplatin, cisplatin]", "values": [{"measurement": "Relative cell survival rate, SNU-1 cell line, 24 h", "setting": "[1]; [5]", "value": 85.0, "unit": "%"}, {"measurement": "Relative cell survival rate, SNU-1 cell line, 48 h", "setting": "[1]; [5]", "value": 32.5, "unit": "%"}, {"measurement": "Relative cell survival rate, SNU-1 cell line, 24 h", "setting": "[1]; [6]", "value": 32.0, "unit": "%"}, {"measurement": "Relative cell survival rate, SNU-1 cell line, 48 h", "setting": "[1]; [6]", "value": 5.8, "unit": "%"}, {"measurement": "Relative cell survival rate, SNU-1 cell line, 24 h", "setting": "[1]; Example 3, cisplatin 4 μM, Fr. 3B (#7_C219A) set to 100%", "value": 89.5, "unit": "%"}, {"measurement": "Relative cell survival rate", "setting": "[2]", "value": 40, "unit": "%"}, {"measurement": "Relative cell survival rate, PANC-1 cell line, 24 h", "setting": "[3]; [7]", "value": 109.3, "unit": "%"}, {"measurement": "Relative cell survival rate, PANC-1 cell line, 48 h", "setting": "[3]; [7]", "value": 82.1, "unit": "%"}, {"measurement": "Relative cell survival rate, PANC-1 cell line, 24 h", "setting": "[3]; cisplatin 33 μM", "value": 60.3, "unit": "%"}, {"measurement": "Relative cell survival rate, PANC-1 cell line, 48 h", "setting": "[3]; cisplatin 33 μM", "value": 9.6, "unit": "%"}, {"measurement": "Relative cell survival rate", "setting": "[4]", "value": "about 60%"}]}
